Results taken from patent US11517596B2, “Method for alleviating arthritis with postbiotic extract” (CHAMBIO CO., LTD., priority 2020, dated 2022).

Assays:
SW1353 cells [1] = assay: Proliferation of SW1353 cells (MTT staining, OD570 converted to cell number); type: cell-based, Human; conditions: 24 hours
Experimental: (§1) • 2. Human primary central chondrosarcoma cell line SW1353 was purchased from the Bioresource Collection and Research Center of the Food Industry Research and Development Institute (BCRC of FIRDI, Taiwan). SW1353 cells were grown in a 10-cm Petri dish containing Dulbecco's Modified Eagle's Medium (DMEM) (Thermo Fisher Scientific) supplemented with 10% fetal bovine serum (FBS). The SW1353 cells were cultivated in an incubator with culture conditions set at 37° C. and 5% CO2. Medium change was performed every two to three days. Cell passage was performed when the cultured cells reached 80-90% of confluence. • 3.
SW1353 cells were divided into 3 groups, including one control group and two experimental groups (i.e., experimental groups L and B). Each group of the SW1353 cells was incubated in a respective well of a 96-well culture plate containing 200 μL of DMEM at 1×10^4 cells/well, followed by cultivation in an incubator (37° C., 5% CO2) for 24 hours. […] The cell culture of the control group received no treatment.
After cultivation in an incubator (37° C., 5% CO2) for 24 hours, the respective resultant cell culture was stained with 3-(4,5-Dimethylthiazol-2-yl)-2,5-diphenyltetrazolium bromide (MTT), followed by subjecting the stained cells to determination of absorbance at a wavelength of 570 nm by a spectrophotometer. The OD570 values obtained were subsequently converted to cell numbers based on a correlation curve previously prepared by plotting different known cell numbers of the SW1353 cells versus their OD570 values.
(§2) SW1353 cells were divided into 28 groups, including fourteen comparative groups (i.e., comparative groups 1L to 7L and […]) and fourteen experimental groups (i.e., experimental groups 1L to 7L and 1B to 7B). Each group of the SW1353 cells was incubated in a respective well of a 96-well culture plate containing 200 μL of DMEM at 1×10^4 cells/well, followed by cultivation in an incubator (37° C., 5% CO2) for 24 hours.
After cultivation in an incubator (37° C., 5% CO2) for 24 hours, the cell number of each group was determined according to the method described in section C of this example. The fold increase of viable cells was calculated using the following Equation (II): C=D/E (II) where C=fold increase of viable cells • D=cell number of respective experimental group or comparative group • E=cell number of corresponding comparative group 1L, 2L, 3L, 4L, 5L, 6L, or 7L

SW1353 cells [2] = assay: Determination of TGF-β content (ELISA) of SW1353 cell cultures treated with postbiotic extract and/or nutritional component; type: cell-based, Human; conditions: 24 hours
Experimental: as §1
The TGF-β content was determined using an enzyme-linked immunosorbent assay (ELISA) kit (Cat. No. 559119, BD Biosciences) in accordance with the manufacturer's instructions.
SW1353 cells were divided into 25 groups, including one control group, twelve comparative groups (i.e., comparative groups L-1 to L-6 and B-1 to B-6), and twelve experimental groups (i.e., experimental groups L-1 to L-6 and B-1 to B-6). Each group of the SW1353 cells was incubated in a respective well of a 96-well culture plate containing 200 μL of DMEM at 1×10^4 cells/well, followed by cultivation in an incubator (37° C., 5% CO2) for 24 hours. […] The cell culture of the control group received no treatment.
After cultivation in an incubator (37° C., 5% CO2) for 24 hours, the respective resultant cell culture was subjected to the determination of TGF-β content according to the method described in section 1 of “General Procedures”.
as §2

[3] = nutritional component only 50 mg/L, this group is the reference of the ratio
[4] = nutritional component only 100 mg/L, relative to the same component at 50 mg/L
[5] = nutritional component only 50 mg/L
[6] = nutritional component only 100 mg/L

Row | Compound | Fold increase of viable cells (SW1353 cells [1]; [3]) | Fold increase of viable cells (SW1353 cells [1]; [4]) | TGF-β content (SW1353 cells [2]; [5]) [pg/mL] | TGF-β content (SW1353 cells [2]; [6]) [pg/mL]
1 | N[C@H]1C(O)O[C@H](CO)[C@@H](O)[C@@H]1O (stereo partly shown) [Glucosamine] | 1.0 | 1.1 | 17.1 | 20.8
2 | O=C1O[C@H]([C@@H](O)CO)C(O)=C1O [Vitamin C] | 1.0 | 1.0 | 18.2 | 21.1
3 | Chondroitin | 1.0 | 1.1 | 38.3 | 44.2
4 | Sodium hyaluronate | 1.0 | 1.1 | 97.3 | 102.2
